Measurements: patent US20100178326A1, “AMINOPHOSPHONATE CARRIERS FOR LIPOSOME-BASED DRUG RELEASE SYSTEMS” (priority 2008, published 2010)

Assay: Liposome alanine efflux coupled with enzymatic assays
Conditions: alanine efflux after one hour of exposure; alanine-loaded DPPC/cholesterol (3:1) liposomes; carrier added in DMSO; control with no carrier 0.7
Procedure: Two sets of tests were undertaken to determine the viability of such aminophosphonate compounds as drug carriers in liposome-based delivery systems. The first evaluated liposome efflux coupled with enzymatic assays. In such an experiment, unilamellar liposomes loaded with 300 mM of alanine (an amino acid) were prepared from dipalmitoyl phosphatidyl choline (DPPC) and cholesterol (3:1 molar ratio) (in accordance with Torchilin, V. et al., Liposomes 2003, Second Edition, Oxford Press). Several samples of alanine-loaded liposomes were then loaded further with identical amounts of the different aminophosphonate carriers from above (with DMSO as a solvent) thereby producing different samples with different carriers but with same concentrations. The liposomes were then measured for alanine efflux after one hour of exposure as the conversion of alanine to pyruvate, catalyzed by Glutamic-Pyruvic Transmaminase enzyme, and further to lactate, catalyzed by the enzyme Lactate Dehydrogenase, accompanied by the oxidation of nicotinamide cofactor NADH to NAD^+ (as monitored by UV spectroscopy). The results are tabulated below (with a control of no carrier): […]

SMILES	Alanine Flux
CCCCC(CC)COP(=O)(OCC(CC)CCCC)C(C)(C)NCc1ccccc1 (stereo not shown) [Example 3]	4.3 nmol/h × m^2
COP(=O)(OC)C1(NCc2ccccc2)CCCCC1 [Example 4]	7.2 nmol/h × m^2
COP(=O)(OC)C(C)(C)NCc1ccccc1 [Example 1]	4.4 nmol/h × m^2
CCCCOP(=O)(OCCCC)C(C)(C)NCc1ccccc1 [Example 2]	3.1 nmol/h × m^2
CCCCOP(=O)(OCCCC)C1(Nc2ccccc2)CCCCC1 [Example 7]	4.4 nmol/h × m^2
CCCCOP(=O)(OCCCC)C1(NCc2ccccc2)CCCCC1 [Example 5]	4.4 nmol/h × m^2
COP(=O)(OC)C(C)(C)Nc1ccccc1 [Example 6]	7.8 nmol/h × m^2
